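Each compound was tested at five concentrations against cells in 96-well plates for 48 hours. GI50 marks 50% less growth.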 The source made the active and inactive calls. Rule as the data show it: active = GI50 up to about 1.1 µM and inactive = higher.
Key:
Experiment in all cases: NCI-60 cell line screen, 48 h
CCRF-CEM = tested on: CCRF-CEM
HCT-15 = tested on: HCT-15
HOP-62 = tested on: HOP-62
IGROV-1 = tested on: IGROV-1
M14 = tested on: M14
MDA-MB-231 = tested on: MDA-MB-231
MDA-MB-435 = tested on: MDA-MB-435
Malme-3M = tested on: Malme-3M
NCI-H226 = tested on: NCI-H226
NCI-H460 = tested on: NCI-H460
NCI-H522 = tested on: NCI-H522
OVCAR-8 = tested on: OVCAR-8
RXF 393 = tested on: RXF 393
SF-539 = tested on: SF-539
SK-MEL-2 = tested on: SK-MEL-2
SK-OV-3 = tested on: SK-OV-3
SW-620 = tested on: SW-620
T47D = tested on: T47D
UACC-257 = tested on: UACC-257
UO-31 = tested on: UO-31

COc1c(C)c(OC)c2c(c1O)[C@@H]1[C@@H]3Cc4c(OC)c(C)c(OC)c(O)c4[C@H](CNC(=O)c4cnc5ccccc5n4)N3[C@@H](C#N)[C@H](C2)N1C
GI50 (CCRF-CEM): 0.000798 µM (active) | GI50 (HCT-15): 0.00826 µM | GI50 (HOP-62): 0.00429 µM (active) | GI50 (IGROV-1): 0.0014 µM (active) | GI50 (M14): 0.00221 µM (active) | GI50 (MDA-MB-231): 0.00326 µM (active) | GI50 (MDA-MB-435): 0.00255 µM (active) | GI50 (Malme-3M): 0.0013 µM (active) | GI50 (NCI-H226): 0.00246 µM (active) | GI50 (NCI-H460): 0.004 µM (active) | GI50 (NCI-H522): 0.000399 µM (active) | GI50 (OVCAR-8): 0.00283 µM (active) | GI50 (RXF 393): 0.00341 µM (active) | GI50 (SF-539): 0.000873 µM (active) | GI50 (SK-MEL-2): 0.00183 µM (active) | GI50 (SK-OV-3): 0.0125 µM (active) | GI50 (SW-620): 0.002 µM (active) | GI50 (T47D): 0.000522 µM (active) | GI50 (UACC-257): 0.00296 µM (active) | GI50 (UO-31): 0.0064 µM (active)

O=C(O)C1C2C=CC(O2)C1C(=O)NCc1cccnc1 (stereo not given)
GI50 (CCRF-CEM): > 100 µM (inactive) | GI50 (HCT-15): > 100 µM | GI50 (HOP-62): > 100 µM (inactive) | GI50 (IGROV-1): > 100 µM (inactive) | GI50 (M14): > 100 µM (inactive) | GI50 (MDA-MB-231): > 100 µM (inactive) | GI50 (MDA-MB-435): > 100 µM (inactive) | GI50 (Malme-3M): > 100 µM (inactive) | GI50 (NCI-H226): > 100 µM (inactive) | GI50 (NCI-H460): > 100 µM (inactive) | GI50 (NCI-H522): > 100 µM (inactive) | GI50 (OVCAR-8): > 100 µM (inactive) | GI50 (RXF 393): > 100 µM (inactive) | GI50 (SF-539): > 100 µM (inactive) | GI50 (SK-MEL-2): > 100 µM (inactive) | GI50 (SK-OV-3): > 100 µM (inactive) | GI50 (SW-620): > 100 µM (inactive) | GI50 (T47D): > 100 µM (inactive) | GI50 (UACC-257): 72.6 µM (inactive) | GI50 (UO-31): > 100 µM (inactive)

CC(=O)Nc1nc(NC(C)=O)c2nc(CO)[nH]c2n1
GI50 (CCRF-CEM): > 100 µM (inactive) | GI50 (HCT-15): > 100 µM | GI50 (HOP-62): > 100 µM (inactive) | GI50 (IGROV-1): > 100 µM (inactive) | GI50 (M14): > 100 µM (inactive) | GI50 (MDA-MB-231): > 100 µM (inactive) | GI50 (MDA-MB-435): > 100 µM (inactive) | GI50 (Malme-3M): > 100 µM (inactive) | GI50 (NCI-H226): > 100 µM (inactive) | GI50 (NCI-H460): > 100 µM (inactive) | GI50 (NCI-H522): > 100 µM (inactive) | GI50 (OVCAR-8): > 100 µM (inactive) | GI50 (RXF 393): > 100 µM (inactive) | GI50 (SF-539): > 100 µM (inactive) | GI50 (SK-MEL-2): > 100 µM (inactive) | GI50 (SK-OV-3): > 100 µM (inactive) | GI50 (SW-620): > 100 µM (inactive) | GI50 (T47D): > 100 µM (inactive) | GI50 (UACC-257): > 100 µM (inactive) | GI50 (UO-31): > 100 µM (inactive)

COc1ccc2c(c1)/C(=C\c1c(C)nc3sc(C)cn13)C(=O)N2
GI50 (CCRF-CEM): 0.455 µM (active) | GI50 (HCT-15): 0.49 µM | GI50 (HOP-62): 1.53 µM (inactive) | GI50 (IGROV-1): 0.755 µM (active) | GI50 (M14): 0.75 µM (active) | GI50 (MDA-MB-231): 0.855 µM (active) | GI50 (MDA-MB-435): 0.106 µM (active) | GI50 (Malme-3M): 0.172 µM (active) | GI50 (NCI-H226): 0.841 µM (active) | GI50 (NCI-H460): 0.205 µM (active) | GI50 (NCI-H522): 0.175 µM (active) | GI50 (OVCAR-8): 2.94 µM (inactive) | GI50 (RXF 393): 1.64 µM (inactive) | GI50 (SF-539): 0.204 µM (active) | GI50 (SK-MEL-2): 0.263 µM (active) | GI50 (SK-OV-3): 1.64 µM (inactive) | GI50 (SW-620): 0.687 µM (active) | GI50 (T47D): 9.89 µM (inactive) | GI50 (UACC-257): 1.41 µM (inactive) | GI50 (UO-31): 3.92 µM (inactive)

Cc1c2c(Cl)c3c(c(Cl)c2c(C)c2c(Cl)c4c(c(Cl)c12)C(c1ccccc1)(c1ccccc1)C4(c1ccccc1)c1ccccc1)C(c1ccccc1)(c1ccccc1)C3(c1ccccc1)c1ccccc1
GI50 (CCRF-CEM): > 100 µM (inactive) | GI50 (HCT-15): > 100 µM | GI50 (HOP-62): > 100 µM (inactive) | GI50 (IGROV-1): > 100 µM (inactive) | GI50 (M14): > 100 µM (inactive) | GI50 (MDA-MB-231): > 100 µM (inactive) | GI50 (MDA-MB-435): > 100 µM (inactive) | GI50 (Malme-3M): > 100 µM (inactive) | GI50 (NCI-H226): > 100 µM (inactive) | GI50 (NCI-H460): > 100 µM (inactive) | GI50 (NCI-H522): > 100 µM (inactive) | GI50 (OVCAR-8): > 100 µM (inactive) | GI50 (RXF 393): > 100 µM (inactive) | GI50 (SF-539): > 100 µM (inactive) | GI50 (SK-MEL-2): > 100 µM (inactive) | GI50 (SK-OV-3): > 100 µM (inactive) | GI50 (SW-620): > 100 µM (inactive) | GI50 (T47D): > 100 µM (inactive) | GI50 (UACC-257): > 100 µM (inactive) | GI50 (UO-31): > 100 µM (inactive)

COc1ccc(/C=N/Nc2nc(=S)[nH]c3[nH]ncc23)cc1
GI50 (CCRF-CEM): 24.7 µM (inactive) | GI50 (HCT-15): > 100 µM | GI50 (HOP-62): 29.9 µM (inactive) | GI50 (IGROV-1): 25 µM (inactive) | GI50 (M14): 41.8 µM (inactive) | GI50 (MDA-MB-231): 34.6 µM (inactive) | GI50 (MDA-MB-435): 30.6 µM (inactive) | GI50 (Malme-3M): 38.2 µM (inactive) | GI50 (NCI-H226): > 100 µM (inactive) | GI50 (NCI-H460): 79.8 µM (inactive) | GI50 (NCI-H522): 26.2 µM (inactive) | GI50 (OVCAR-8): > 100 µM (inactive) | GI50 (RXF 393): > 100 µM (inactive) | GI50 (SF-539): > 100 µM (inactive) | GI50 (SK-MEL-2): 45.7 µM (inactive) | GI50 (SK-OV-3): > 100 µM (inactive) | GI50 (SW-620): > 100 µM (inactive) | GI50 (T47D): 14.5 µM (inactive) | GI50 (UACC-257): 55.6 µM (inactive) | GI50 (UO-31): > 100 µM (inactive)

COc1ccc(NC(=O)CC(=O)N2N=C(C)C(/N=N\c3ccc(S(=O)(=O)c4ccc(/N=N/C5C(=O)N(C(=O)CC(=O)Nc6ccc(OC)cc6)N=C5C)cc4)cc3)C2=O)cc1 (stereo not given)
GI50 (CCRF-CEM): > 100 µM (inactive) | GI50 (HCT-15): > 100 µM | GI50 (HOP-62): 45.6 µM (inactive) | GI50 (IGROV-1): 55.1 µM (inactive) | GI50 (M14): > 100 µM (inactive) | GI50 (MDA-MB-231): > 100 µM (inactive) | GI50 (MDA-MB-435): > 100 µM (inactive) | GI50 (Malme-3M): > 100 µM (inactive) | GI50 (NCI-H226): > 100 µM (inactive) | GI50 (NCI-H460): > 100 µM (inactive) | GI50 (NCI-H522): > 100 µM (inactive) | GI50 (OVCAR-8): > 100 µM (inactive) | GI50 (RXF 393): 31.3 µM (inactive) | GI50 (SF-539): > 100 µM (inactive) | GI50 (SK-MEL-2): > 100 µM (inactive) | GI50 (SK-OV-3): > 100 µM (inactive) | GI50 (SW-620): > 100 µM (inactive) | GI50 (T47D): > 100 µM (inactive) | GI50 (UACC-257): > 100 µM (inactive) | GI50 (UO-31): > 100 µM (inactive)

Reference: ChEMBL document CHEMBL1201862, “PubChem BioAssay data set” (2004)
